# Data from patent US20070167412A1, “HALOCOMBSTATINS AND METHODS OF SYNTHESIS THEREOF” (ARIZONA BOARD OF REGENTS, priority 2003, published 2007).
# Key:
# [1] = test system: KAT-4; experiment: human anaplastic thyroid carcinoma cell line inhibition; format: cell-based
# Description: (§1) Inhibition of human cancer cell growth was assessed using the National Cancer Institute's standard sulforhodamine B assay. After 48 hours, the plates were fixed with trichloracetic acid, stained with sulforhodamine B and read with an automated microplate reader. A growth inhibition of 50% (GI50 or the drug concentration causing a 50% reduction in the net protein increase) was calculated from optical density data with Inmunosoft software. Inhibition of the mouse leukemia P388 cells was assessed in a 10% horse serum/Fisher medium soution for 24 hours, followed by a 48 hour incubation with serial dilutions of the compounds. Cell growth inhibition (ED50) was then calculated using a Z1 Becleman/Coulter particle counter.
# [2] = test system: SW1736; experiment: as above; format: cell-based
# Description: as §1
# [3] = test system: human umbilical vein endothelial cells (HUVEC); experiment: HUVEC growth inhibition, sulforhodamine B assay; format: cell-based
# Description: (§2) In vitro Matrigel antiangiogenesis assays were implemented according to the Developmental Therapeutics Program NCI/NIH protocols known to one of skill in the art. Matrigel, a basement membrane matrix, was obtained from BD Biosciences. Growth inhibition and cord formation assays were Conducted using human umbilical vein endothelial cells obtained from GlycoTeCh. HUVEC cells were grown in EGM-2 medium.
# The standard sulforhodamine B assay (see Cancer Cell Line Procedures above) was used to evaluate results using HUVEC cells. IC50 or ED50 (drug concentration causing 50% inhibition) was calculated from the plotted data.
# [4] = test system: human umbilical vein endothelial cells (HUVEC); experiment: Matrigel cord formation assay; format: cell-based; parameters: key to Lengths of Cords: −: No Cords; +: Small; ++: ˜50% of Control; +++: Same as Control; conditions: 24 hours, compared to untreated controls
# Description: as §2
# (§3) An aliquot of sixty microliters was placed in each well of an ice-cold 96-well plate. The plates were then left for 15 minutes at room temperature, then incubated for 30 minutes at 37° C. to permit the matrigel to polymerize. Meanwhile, HUVEC cells were harvested and diluted to a concentration of 2×10^5 cells/ml. A solution of 100 μL containing the compounds to be tested was added next. After 24 hours incubation, pictures were taken for each concentration using an inverted Nikon Diaphot microscope and D100 digital camera. Drug effect was assessed, compared to untreated controls, by measuring the length of cords formed and number ofjunctions.
# [5] = test system: human umbilical vein endothelial cells (HUVEC); experiment: Matrigel cord formation assay; format: cell-based; parameters: key: −: No Cords; +: Small; ++: ˜50% of Control; +++: Same as Control; conditions: 24 hours, compared to untreated controls
# Description: as §2, §3
# [6] = test system: human umbilical vein endothelial cells (HUVEC); experiment: Matrigel cord formation assay; format: cell-based; parameters: key: −: No Junctions; +: Few; ++: ˜50% of Control; +++: Same as Control; conditions: 24 hours, compared to untreated controls
# Description: as §2, §3
# [7] = test system: Breast MCF-7; experiment: human cancer cell growth inhibition, sulforhodamine B assay; format: cell-based; conditions: Table I; 48 hours
# How it was run: (§4)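 NCI sulforhodamine B protocol: cells exposed to compounds for 48 h, then fixed with trichloroacetic acid, stained with sulforhodamine B and read on a microplate reader.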
# [8] = test system: CNS SF268; experiment: as above; format: cell-based; conditions: Table I; 48 hours
# How it was run: as §4
# [9] = test system: Colon KM20L2; experiment: as above; format: cell-based; conditions: Table I; 48 hours
# How it was run: as §4
# [10] = test system: Lung-NSC NCI-H460; experiment: as above; format: cell-based; conditions: Table I; 48 hours
# How it was run: as §4
# [11] = test system: Pancreas BXPC-3; experiment: as above; format: cell-based; conditions: Table I; 48 hours
# How it was run: as §4
# [12] = test system: Prostate DU-145; experiment: as above; format: cell-based; conditions: Table I; 48 hours
# How it was run: as §4
# [13] = test system: T1, purified tubulin; experiment: inhibition of tubulin polymerization (turbidimetry); format: biochemical; conditions: 10 μM tubulin, GTP 0.4 mM, 30° C., extent after 20 minutes; read-out: Inhibition of polymerization IC50 ± S.D.
# T1 construct: other: 10 μM tubulin, GTP 0.4 mM, 30° C., extent after 20 minutes
# Description: (§5) Tubulin polymerization was evaluated by turbidimetry at 350 nm using Beckman DU7400/7500 spectrophotometers as described in detail elsewhere. […] Varying concentrations of drug were preincubated with 10 μM:M ([…]) purified tubulin (See Hamel, E., et al., Separation of Active Tubulin and Microtubule-associated Proteins by Ultracentrifiigation and Isolation of a Component Causing the Formation of Microtubule Bundles, Biochemistry 1984, 23, 4173-4184). Samples were chilled on ice, GTP (0.4 mM) was added, and polymerization was followed at 30° C. The parameter measured was extent of the reaction after 20 minutes. Coichicine binding was measured as described in detail previously. Reaction mixtures contained 1.0 μM :M tubulin, 5.0:M, [^3H]colchicine (from Dupont), and inhibitor at 1.0 μM:M. Incubation was for 10 minutes at 37° C.
# Tubulin Evaluations: Tubulin polymerization was evaluated by turbidimetry at […] using Beckman DU7400/7500 spectrophotometers as known to one of skill in the art. Varying concentrations of the compound were preincubated with 10 μM. […]
# [14] = test system: tubulin; experiment: inhibition of [3H]colchicine binding to tubulin; conditions: 1.0 μM tubulin, 5.0 μM [3H]colchicine, inhibitor at 1.0 μM, 10 minutes at 37° C.
# Description: as §5
# [15] = test system: Candida albicans; experiment: reference broth microdilution susceptibility assay; format: cell-based; conditions: Table III
# How it was run: (§6)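 Read-out is growth susceptibility in the NCCLS reference broth microdilution format, under M27-A for the two yeasts and under M7-A5 for the two bacteria.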
# [16] = test system: Cryptococcus neoformans; experiment: reference broth microdilution susceptibility assay; format: cell-based; conditions: Table III
# How it was run: as §6
# [17] = test system: Enterobacter cloacae; experiment: reference broth microdilution susceptibility assay; format: cell-based; conditions: Table III
# How it was run: (§7)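 Compounds are serially diluted in broth and tested for microbial susceptibility by the standard microdilution procedure. Bacteria are handled per approved standard M7-A5 and yeasts per approved standard M27-A.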
# [18] = test system: Enterococcus faecalis; experiment: reference broth microdilution susceptibility assay; format: cell-based; conditions: Table III
# How it was run: as §7
# [19] = test system: Escherichia coli; experiment: reference broth microdilution susceptibility assay; format: cell-based; conditions: Table III
# How it was run: as §6
# [20] = test system: Micrococcus luteus; experiment: reference broth microdilution susceptibility assay; format: cell-based; conditions: Table III
# How it was run: as §6
# [21] = test system: Neisseria gonorrhoeae; experiment: reference broth microdilution susceptibility assay; format: cell-based; conditions: Table III
# How it was run: as §7
# [22] = test system: Staphylococcus aureus; experiment: reference broth microdilution susceptibility assay; format: cell-based; conditions: Table III
# How it was run: as §7
# [23] = test system: Stenotrophomonas maltophilia; experiment: reference broth microdilution susceptibility assay; format: cell-based; conditions: Table III
# How it was run: as §7
# [24] = test system: Streptococcus pneumoniae; experiment: reference broth microdilution susceptibility assay; format: cell-based; conditions: Table III
# How it was run: as §7
# [25] = test system: microtubules in human umbilical vein endothelial cells (HUVEC); experiment: disruption of microtubules in HUVEC; format: cell-based
# Text: HUVECs were isolated according to methods know to one of skill in the art (see Jaffe, E. A. et al., Culture of Human Endothelial Cells Derived From Umbilical Veins. Identification by Morphologic and Immunologic Criteria, J. Clin. Invest. 1973, 52, 2754-2756.)
compound,measurement,setting,value
"Potassium 3-iodo-4,4′,5-trimethoxy-z-stilbene 3′-O-phosphate [Compound 20c]",Human Anaplastic Thyroid Carcinoma Cell Line Inhibition Values (GI50) KAT-4,[1],0.37 to 0.43 µg/mL
same,Human Anaplastic Thyroid Carcinoma Cell Line Inhibition Values (GI50) SW1736,[2],>10 µg/mL
same,Relative % Growth,"[3]; HUVEC, 0.00001 μg/ml",95%
same,Relative % Growth,"[3]; HUVEC, 0.0001 μg/ml",77%
same,Relative % Growth,"[3]; HUVEC, 0.001 μg/ml",10%
same,Relative % Growth,"[3]; HUVEC, 0.01 μg/ml",1%
same,Human Umbilical Vein Endothelial Cell (HUVEC) Inhibition Values (GI50),[3]; Table V,0.00025 µg/mL
same,Lengths of Cords,[4]; 0.00001 μg/ml,+++
same,Lengths of Cords,[4]; 0.0001 μg/ml,+++
same,Lengths of Cords,[4]; 0.001 μg/ml,++
same,Number of junctions,[5]; 0.00001 μg/ml,+++
same,Number of junctions,[5]; 0.0001 μg/ml,+++
"Potassium 3,5-dilodo-4,4′dimethoxy-z-stilbene 3′-O-phosphate [Compound S (Table Ia)]",Human Anaplastic Thyroid Carcinoma Cell Line Inhibition Values (GI50) KAT-4,[1],0.38 to 0.44 µg/mL
same,Human Anaplastic Thyroid Carcinoma Cell Line Inhibition Values (GI50) SW1736,[2],>10 µg/mL
same,Relative % Growth,"[3]; HUVEC, 0.0001 μg/ml",96%
same,Relative % Growth,"[3]; HUVEC, 0.001 μg/ml",88%
same,Relative % Growth,"[3]; HUVEC, 0.01 μg/ml",33%
same,Relative % Growth,"[3]; HUVEC, 0.1 μg/ml",15%
same,Human Umbilical Vein Endothelial Cell (HUVEC) Inhibition Values (GI50),[3]; Table V,0.0049 µg/mL
same,Lengths of Cords,[4]; 0.001 μg/ml,+++
same,Lengths of Cords,[4]; 0.1 μg/ml,−
same,Number of junctions,[5]; 0.001 μg/ml,+++
same,Number of junctions,[6]; 0.1 μg/ml,−
"3-Cloro-4,4′,5-trimethoxy-3′-hydroxy-Z-stilbene [Compound 12a]",Human cancer cell line inhibition (GI50) Breast adn MCF-7,[7],<0.001 µg/mL
same,Human cancer cell line inhibition (GI50) CNS SF268,[8],<0.001 µg/mL
same,Human cancer cell line inhibition (GI50) Colon KM20L2,[9],0.15 µg/mL
same,Human cancer cell line inhibition (GI50) Lung-NSC NCI-H460,[10],<0.001 µg/mL
same,Human cancer cell line inhibition (GI50) Pancreas-a BXPC-3,[11],0.043 µg/mL
same,Human cancer cell line inhibition (GI50) Prostate DU-145,[12],<0.001 µg/mL
same,IC50,[13],1.6 ± 0.3 µM
same,Inhibition of colchicine binding % inhibition ± S.D.,[14],85 ± 4%
same,"Range of minimum inhibitory concentration, Candida albicans",[15],* (no inhibition at 64 μg/ml)
same,"Range of minimum inhibitory concentration, Cryptococcus neoformans",[16],64 µg/mL
same,"Range of minimum inhibitory concentration, Enterobacter cloacae",[17],* (no inhibition at 64 μg/ml)
same,"Range of minimum inhibitory concentration, Enterococcus faecalis",[18],* (no inhibition at 64 μg/ml)
same,"Range of minimum inhibitory concentration, Escherichia coli",[19],* (no inhibition at 64 μg/ml)
same,"Range of minimum inhibitory concentration, Micrococcus luteus",[20],32 µg/mL
same,"Range of minimum inhibitory concentration, Neisseria gonorrhoeae",[21],16 µg/mL
same,"Range of minimum inhibitory concentration, Staphylococcus aureus",[22],* (no inhibition at 64 μg/ml)
same,"Range of minimum inhibitory concentration, Stenotrophomonas maltophilia",[23],* (no inhibition at 64 μg/ml)
same,"Range of minimum inhibitory concentration, Streptococcus pneumoniae",[24],32 to 64 µg/mL
same,ability to disrupt microtubules in HUVEC,[25],disrupt microtubules
"COc1ccc(/C=C\c2cc(I)c(OC)c(I)c2)cc1O [Compound 22a, 3,5-diiodo-4,4′-dimethoxy-3′-hydroxy-z-stilbene]",GI50,"[1]; Homo sapiens, KAT-4",0.039 to 0.063 µg/mL
same,GI50,"[2]; Homo sapiens, SW-1736",1.2 µg/mL
same,Relative % Growth,"[3]; HUVEC, 0.00001 μg/ml",87%
same,Relative % Growth,"[3]; HUVEC, 0.0001 μg/ml",84%
same,Relative % Growth,"[3]; HUVEC, 0.001 μg/ml",8%
same,Relative % Growth,"[3]; HUVEC, 0.01 μg/ml",4%
same,GI50,"[3]; Homo sapiens, HUVEC, Table V, read-out: Human Umbilical Vein Endothelial Cell (HUVEC) Inhibition Values (GI50)",0.00028 µg/mL
same,Lengths of Cords,[4]; 0.0001 μg/ml,+++
same,Lengths of Cords,[4]; 0.001 μg/ml,+
same,Lengths of Cords,[4]; 0.01 μg/ml,−
same,Number of junctions,[5]; 0.0001 μg/ml,+++
same,Number of junctions,[6]; 0.01 μg/ml,−
